# Test results published in patent publication US6737383B1, “Herbicidal oxadiazolidines” (priority 1999, dated 2004).
# Tests used:
# bedstraw = assay: Test B pre/postemergence bedstraw; type: in vivo, Galium aparine; conditions: Preemergence
# How it was run: (§1)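 Response is a visual 0-to-10 score relative to untreated plants, where 0 means no effect and 10 means complete control, taken twelve to sixteen days after application. Treatments went onto soil at planting and onto foliage of 1- to 4-leaf plants, using a surfactant-containing non-phytotoxic solvent.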
# blackgrass = assay: Test B pre/postemergence blackgrass; type: in vivo, Alopecurus myosuroides
# How it was run: as §1
# surinam grass = assay: Test B pre/postemergence surinam grass; type: in vivo, Brachiaria decumbens
# How it was run: as §1
# cocklebur = assay: Test B pre/postemergence cocklebur; type: in vivo, Xanthium strumarium
# How it was run: as §1
# corn = assay: Test B pre/postemergence corn; type: in vivo, Zea mays
# How it was run: as §1
# crabgrass = assay: Test B pre/postemergence crabgrass; type: in vivo, Digitaria sanguinalis
# How it was run: as §1
# giant foxtail = assay: Test B pre/postemergence giant foxtail; type: in vivo, Setaria faberii
# How it was run: as §1
# morningglory = assay: Test B pre/postemergence morningglory; type: in vivo, Ipomoea hederacea
# How it was run: as §1
# pigweed = assay: Test B pre/postemergence pigweed; type: in vivo, Amaranthus retroflexus
# How it was run: as §1
# rape = assay: Test B pre/postemergence rape; type: in vivo, Brassica napus
# How it was run: as §1
# soybean = assay: Test B pre/postemergence soybean; type: in vivo, Glycine max
# How it was run: as §1
# sugar beet = assay: Test B pre/postemergence sugar beet; type: in vivo, Beta vulgaris
# How it was run: as §1
# velvetleaf = assay: Test B pre/postemergence velvetleaf; type: in vivo, Abutilon theophrasti
# How it was run: as §1
# wheat = assay: Test B pre/postemergence wheat; type: in vivo, Triticum aestivum
# How it was run: as §1
# wild oat = assay: Test B pre/postemergence wild oat; type: in vivo, Avena fatua
# How it was run: as §1
# purple nutsedge = assay: Test B pre/postemergence purple nutsedge; type: in vivo, Cyperus rotundus
# How it was run: as §1
# rice = assay: Test B flood test rice; type: in vivo, Oryza sativa
# How it was run: (§2)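 Read-out is a visual response score from 0 (no effect) to 10 (complete control), assigned by comparison with untreated controls. Treatment was applied at the 2-leaf stage, and plants stayed in the greenhouse for twelve to sixteen days before scoring.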
# smallflower flatsedge = assay: Test B flood test smallflower flatsedge; type: in vivo, Cyperus difformis
# How it was run: as §2
# duck salad = assay: Test B flood test duck salad; type: in vivo, Heteranthera limosa
# How it was run: as §2
# bamyardgrass = assay: Test B flood test barnyardgrass; type: in vivo, Echinochloa crus-galli
# How it was run: as §2
# [1] = Postemergence, Rate 62 g/ha, scale 0 to 10, 0 is no effect, 10 is complete control
# [2] = Postemergence, Rate 125 g/ha, scale of 0 to 10 where 0 is no effect and 10 is complete control
# [3] = Postemergence, Rate 250 g/ha, scale of 0 to 10, 0 is no effect, 10 is complete control
# [4] = Postemergence, Rate 500 g/ha, scale of 0 to 10 where 0 is no effect and 10 is complete control
# [5] = Preemergence, Rate 62 g/ha, scale 0 to 10 (0 no effect, 10 complete control)
# [6] = Preemergence, Rate 125 g/ha, scale of 0 to 10 where 0 is no effect and 10 is complete control
# [7] = Preemergence, Rate 500 g/ha, scale of 0 to 10 where 0 is no effect and 10 is complete control
# [8] = Rate 62 g/ha, flood test species, Pre-emergence, visual evaluation after twelve to sixteen days
# [9] = Rate 125 g/ha, under heading Pre-emergence, flood test species, visual evaluation after twelve to sixteen days
# [10] = Rate 250 g/ha, Pre-emergence (flood test species), scale 0 to 10, 0 is no effect, 10 is complete control
# [11] = Rate 500 g/ha, Pre-emergence section of Table B, 0 to 10 scale (0 no effect, 10 complete control)
compound,measurement,setting,value
CC(C)N(C(=O)n1oc(=O)n(CC(C)[N+](=O)[O-])c1=O)c1ccccc1 (stereo not drawn) [Compound 604],Bedstraw plant response rating (0 to 10 scale),bedstraw; Rate 250 g/ha,0
same,Bedstraw plant response rating,"bedstraw; Rate 500 g/ha, scale of 0 to 10 where 0 is no effect and 10 is complete control",0
same,"Plant response rating, Blackgrass",blackgrass; [1],0
same,"Plant response rating, Blackgrass",blackgrass; [2],0
same,Blackgrass plant response rating,blackgrass; [3],0
same,"Plant response rating, Blackgrass",blackgrass; [4],0
same,Blackgrass plant response rating,blackgrass; [5],0
same,Blackgrass plant response rating,blackgrass; [6],0
same,Blackgrass plant response rating (0 to 10 scale),"blackgrass; Preemergence, Rate 250 g/ha",0
same,Blackgrass plant response rating,blackgrass; [7],0
same,"Plant response rating, B. signalgrass",surinam grass; [1],0
same,"Plant response rating, B. signalgrass",surinam grass; [2],0
same,B. signalgrass plant response rating,surinam grass; [3],0
same,"Plant response rating, B. signalgrass",surinam grass; [4],0
same,B. signalgrass plant response rating,surinam grass; [5],0
same,B. signalgrass plant response rating,surinam grass; [6],0
same,"B. signalgrass plant response rating (0 to 10 scale, 0 is no effect, 10 is complete control)","surinam grass; Preemergence, Rate 250 g/ha",0
same,B. signalgrass plant response rating,surinam grass; [7],0
same,"Plant response rating, Cocklebur",cocklebur; [1],0
same,"Plant response rating, Cocklebur",cocklebur; [2],0
same,Cocklebur plant response rating,cocklebur; [3],0
same,"Plant response rating, Cocklebur",cocklebur; [4],0
same,Cocklebur plant response rating,cocklebur; [5],0
same,Cocklebur plant response rating,cocklebur; [6],0
same,Cocklebur plant response rating (0 to 10 scale),"cocklebur; Preemergence, Rate 250 g/ha",0
same,"Plant response rating, Cocklebur",cocklebur; [7],0
same,"Plant response rating, Corn",corn; [1],0
same,"Plant response rating, Corn",corn; [2],0
same,Corn plant response rating,corn; [3],0
same,"Plant response rating, Corn",corn; [4],0
same,Corn plant response rating,corn; [5],0
same,Corn plant response rating,corn; [6],0
same,Corn plant response rating (0 to 10 scale),"corn; Preemergence, Rate 250 g/ha",0
same,"Plant response rating, Corn",corn; [7],0
same,"Plant response rating, Crabgrass",crabgrass; [1],1
same,Crabgrass plant response rating,crabgrass; [3],3
same,"Plant response rating, Crabgrass",crabgrass; [4],3
same,Crabgrass plant response rating,crabgrass; [5],0
same,Crabgrass plant response rating,crabgrass; [6],0
same,"Plant response rating, Crabgrass",crabgrass; [7],1
same,"Plant response rating, Giant foxtail",giant foxtail; [1],1
same,"Plant response rating, Giant foxtail",giant foxtail; [2],2
same,Giant foxtail plant response rating,giant foxtail; [3],3
same,"Plant response rating, Giant foxtail",giant foxtail; [4],4
same,Giant foxtail plant response rating,giant foxtail; [5],0
same,Giant foxtail plant response rating,giant foxtail; [6],2
same,"Plant response rating, Giant foxtail",giant foxtail; [7],7
same,"Plant response rating, Morningglory",morningglory; [1],0
same,"Plant response rating, Morningglory",morningglory; [2],1
same,Morningglory plant response rating,morningglory; [3],2
same,"Plant response rating, Morningglory",morningglory; [4],2
same,Morningglory plant response rating,morningglory; [5],0
same,Morningglory plant response rating,morningglory; [6],0
same,"Plant response rating, Morningglory",morningglory; [7],0
same,"Plant response rating, Redroot pigweed",pigweed; [1],0
same,"Plant response rating, Redroot pigweed",pigweed; [2],0
same,Redroot pigweed plant response rating,pigweed; [3],0
same,"Plant response rating, Redroot pigweed",pigweed; [4],0
same,Redroot pigweed plant response rating,pigweed; [5],0
same,Redroot pigweed plant response rating,pigweed; [6],0
same,"Plant response rating, Redroot pigweed",pigweed; [7],0
same,"Plant response rating, Rape",rape; [1],0
same,"Plant response rating, Rape",rape; [2],0
same,Rape plant response rating,rape; [3],0
same,"Plant response rating, Rape",rape; [4],0
same,Rape plant response rating,rape; [5],0
same,Rape plant response rating,rape; [6],0
same,"Plant response rating, Rape",rape; [7],0
same,"Plant response rating, Soybean",soybean; [1],0
same,"Plant response rating, Soybean",soybean; [2],1
same,Soybean plant response rating,soybean; [3],1
same,"Plant response rating, Soybean",soybean; [4],1
same,Soybean plant response rating,soybean; [5],0
same,Soybean plant response rating,soybean; [6],0
same,"Plant response rating, Soybean",soybean; [7],0
same,"Plant response rating, Sugarbeets",sugar beet; [1],0
same,"Plant response rating, Sugarbeets",sugar beet; [2],0
same,Sugarbeets plant response rating,sugar beet; [3],0
same,"Plant response rating, Sugarbeets",sugar beet; [4],0
same,Sugarbeets plant response rating,sugar beet; [5],0
same,Sugarbeets plant response rating,sugar beet; [6],0
same,"Plant response rating, Sugarbeets",sugar beet; [7],0
same,"Plant response rating, Velvetleaf",velvetleaf; [1],0
same,"Plant response rating, Velvetleaf",velvetleaf; [2],0
same,Velvetleaf plant response rating,velvetleaf; [3],0
same,"Plant response rating, Velvetleaf",velvetleaf; [4],0
same,Velvetleaf plant response rating,velvetleaf; [5],0
same,Velvetleaf plant response rating,velvetleaf; [6],0
same,"Plant response rating, Velvetleaf",velvetleaf; [7],0
same,"Plant response rating, Wheat",wheat; [1],0
same,"Plant response rating, Wheat",wheat; [2],0
same,Wheat plant response rating,wheat; [3],0
same,"Plant response rating, Wheat",wheat; [4],0
same,Wheat plant response rating,wheat; [5],0
same,Wheat plant response rating,wheat; [6],0
same,"Plant response rating, Wheat",wheat; [7],0
same,"Plant response rating, Wild oats",wild oat; [1],0
same,"Plant response rating, Wild oats",wild oat; [2],0
same,Wild oats plant response rating,wild oat; [3],0
same,"Plant response rating, Wild oats",wild oat; [4],0
same,Wild oats plant response rating,wild oat; [5],0
same,Wild oats plant response rating,wild oat; [6],0
same,"Plant response rating, Wild oats",wild oat; [7],0
same,"Plant response rating, Nutsedge",purple nutsedge; [1],0
same,"Plant response rating, Nutsedge",purple nutsedge; [2],0
same,Nutsedge plant response rating,purple nutsedge; [3],0
same,"Plant response rating, Nutsedge",purple nutsedge; [4],0
same,Nutsedge plant response rating,purple nutsedge; [5],0
same,Nutsedge plant response rating,purple nutsedge; [6],0
same,"Plant response rating, Nutsedge",purple nutsedge; [7],0
same,"Plant response rating, Rice (0 to 10 scale, 0 is no effect, 10 is complete control)",rice; [8],0
same,"Rice plant response rating (0 to 10 scale, 0 is no effect, 10 is complete control)",rice; [9],0
same,Rice plant response rating,rice; [10],0
same,Rice plant response rating,rice; [11],0
same,"Plant response rating, S. Flatsedge (0 to 10 scale, 0 is no effect, 10 is complete control)",smallflower flatsedge; [8],0
same,"S. Flatsedge plant response rating (0 to 10 scale, 0 is no effect, 10 is complete control)",smallflower flatsedge; [9],0
same,S. Flatsedge plant response rating,smallflower flatsedge; [10],0
same,S. Flatsedge plant response rating,smallflower flatsedge; [11],0
same,"Plant response rating, Ducksalad (0 to 10 scale, 0 is no effect, 10 is complete control)",duck salad; [8],0
same,"Ducksalad plant response rating (0 to 10 scale, 0 is no effect, 10 is complete control)",duck salad; [9],0
same,Ducksalad plant response rating,duck salad; [10],0
same,Ducksalad plant response rating,duck salad; [11],0
same,"Plant response rating, Barnyardgrass (0 to 10 scale, 0 is no effect, 10 is complete control)",bamyardgrass; [8],0
same,"Barnyardgrass plant response rating (0 to 10 scale, 0 is no effect, 10 is complete control)",bamyardgrass; [9],0
same,Barnyardgrass plant response rating,bamyardgrass; [10],0
same,Barnyardgrass plant response rating,bamyardgrass; [11],0
